Measurements: PMC8911699, “Biological and Cheminformatics Studies of Newly Designed Triazole Based Derivatives as Potent Inhibitors against Mushroom Tyrosinase” (Molecules, 2022)
“Also recorded” adds a separate entry of the source.

Legend:
mushroom tyrosinase [1] = biological target: T1, mushroom tyrosinase (Agaricus bisporus, UniProt C7FF04); test: Mushroom tyrosinase inhibition assay (dopachrome technique, L-DOPA substrate); format: biochemical
Protocol: The inhibition of mushroom tyrosinase was determined by an alteration of the dopachrome technique using L-DOPA as a substrate. The mushroom tyrosinase (EC-232-653-4) was purchased from Sigma Korea. […] After the incubation time, the absorbance was measured at 475 nm using a microplate reader (SpectraMax ABS, Molecular Devices, California, CA, USA) and the inhibition percentage was calculated in relation to the control. […] Each concentration was scrutinized in three independent experiments. IC50 values were calculated by non-linear regression using GraphPad Prism 5.0. The % inhibition of tyrosinase was calculated as follows:Inhibition (%) = [(B−S)/B] ×100 where the B and S are the absorbances of the blank control and normal samples, respectively.
Target sequence in this assay (C7FF04 2-392): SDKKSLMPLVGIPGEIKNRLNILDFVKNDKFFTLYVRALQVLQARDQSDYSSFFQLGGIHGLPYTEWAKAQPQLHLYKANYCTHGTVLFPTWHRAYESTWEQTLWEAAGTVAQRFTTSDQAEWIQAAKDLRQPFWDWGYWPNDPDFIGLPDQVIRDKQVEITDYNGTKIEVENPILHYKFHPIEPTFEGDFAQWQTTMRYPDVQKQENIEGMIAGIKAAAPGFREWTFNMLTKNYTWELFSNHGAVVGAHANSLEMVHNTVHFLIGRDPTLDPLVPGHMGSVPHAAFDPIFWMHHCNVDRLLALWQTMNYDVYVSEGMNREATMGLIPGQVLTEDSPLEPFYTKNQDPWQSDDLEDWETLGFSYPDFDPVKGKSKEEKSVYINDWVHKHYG

mushroom tyrosinase [2] = biological target: T1, mushroom tyrosinase; test: Inhibition kinetics (Lineweaver-Burk and secondary plots); format: biochemical; set-up: purchased Sigma Korea EC-232-653-4
Protocol: To understand the inhibitory mechanism of synthetic compounds on tyrosinase, an inhibition kinetic study was performed. […] The kinetic results of the enzyme expressed by the Lineweaver–Burk plot of 1/V versus 1/[S] for different inhibitor concentrations provided a series of straight lines. […] Additionally, the Km value increased with increasing the concentration of the inhibitor. […] The inhibition constant Ki was computed from Figure 4.
A series of experiments were performed to regulate the inhibition kinetics of 9h by following the already reported methods. The inhibitor concentrations for 9h were 0.00, 0.049, 0.098, and 0.196 µM. Substrate (L-DOPA) concentrations were between 0.0625 to 2 mM in all kinetic studies. Pre-incubation and measurement time were the same as discussed in the mushroom tyrosinase inhibition assay protocol. Maximal initial velocity was obtained from the initial linear portion of absorbance up to five minutes after the addition of enzyme at the 30 s interval. The inhibition type of the enzyme was assayed by Lineweaver–Burk plots of the inverse of velocities (1/V) versus the inverse of substrate concentration 1/[S] mM^−1.
Target sequence in this assay (C7FF04 1-392 limits assumed): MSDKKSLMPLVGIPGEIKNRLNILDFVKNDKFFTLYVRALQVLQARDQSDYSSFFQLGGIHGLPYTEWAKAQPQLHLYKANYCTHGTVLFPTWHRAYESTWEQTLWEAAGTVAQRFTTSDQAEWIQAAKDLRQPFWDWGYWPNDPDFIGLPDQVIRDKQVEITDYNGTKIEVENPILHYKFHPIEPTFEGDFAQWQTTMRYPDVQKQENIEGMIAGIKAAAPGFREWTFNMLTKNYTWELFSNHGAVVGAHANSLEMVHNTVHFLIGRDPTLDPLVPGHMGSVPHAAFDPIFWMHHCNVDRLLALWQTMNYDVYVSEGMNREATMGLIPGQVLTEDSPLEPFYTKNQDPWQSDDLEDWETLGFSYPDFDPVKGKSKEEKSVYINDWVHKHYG

Structure (SMILES) | melting point [°C] | response against mushroom tyrosinase inhibition (in words) (mushroom tyrosinase [1]) | inhibition type (mushroom tyrosinase [2]; Lineweaver-Burk plot, Vmax same, Km increased) | Ki (mushroom tyrosinase [2]; from plot of slope versus inhibitor concentration, L-DOPA 0.0625-2 mM, read-out: inhibition constant Ki) [µM]
O=C(CSc1nnc(-c2ccccc2)n1-c1ccc(F)cc1)Nc1ccccc1 [9d, 2-(4-(4-Fluorophenyl)-5-phenyl-4H-1,2,4-triazol-3-ylthio)-N-phenylacetamide] | 206 |  |  | 
O=C(CSc1nnc(-c2ccc(F)cc2)n1-c1ccc(F)cc1)Nc1ccc(Br)cc1 [9c, 2-(4,5-Bis(4-fluorophenyl)-4H-1,2,4-triazol-3-ylthio)-N-(4-bromophenyl) Acetamide] | 219.3 | did not show any response; also recorded: ineffective counter response |  | 
O=C(CSc1nnc(-c2ccc(F)cc2)n1-c1ccc(F)cc1)Nc1ccc(F)cc1 [9b, 2-(4,5-Bis(4-fluorophenyl)-4H-1,2,4-triazol-3-ylthio)-N-(4-fluorophenyl) Acetamide] | 195.3 | did not show any response; also recorded: ineffective counter response |  | 
O=C(CSc1nnc(-c2ccccc2F)n1-c1ccc(F)cc1)Nc1ccc(F)cc1 [9h, N-(4-fluorophenyl)-2-(5-(2-fluorophenyl)-4-(4-fluorophenyl)-4H-1,2,4-triazol-3-ylthio) Acetamide] |  |  | competitively inhibits | 0.018

Continued, in another order:

melting point [°C] | Structure (SMILES) | response against mushroom tyrosinase inhibition (in words) (mushroom tyrosinase [1]) | inhibition type (mushroom tyrosinase [2]; Lineweaver-Burk plot, Vmax same, Km increased) | Ki (mushroom tyrosinase [2]; from plot of slope versus inhibitor concentration, L-DOPA 0.0625-2 mM, read-out: inhibition constant Ki) [µM]
248.9 | O=C(CSc1nnc(-c2ccccc2F)n1-c1ccc(F)cc1)Nc1ccc(Br)cc1 [9i, N-(4-bromophenyl)-2-(5-(2-fluorophenyl)-4-(4-fluorophenyl)-4H-1,2,4-triazol-3-ylthio) Acetamide] | did not show any response |  | 
220.1 | O=C(CSc1nnc(-c2ccccc2)n1-c1ccc(F)cc1)Nc1ccc(F)cc1 [9e, N-(4-fluorophenyl)-2-(4-(4-fluorophenyl)-5-phenyl-4H-1,2,4-triazol-3-ylthio) Acetamide] |  |  | 
